Measured values: PMC11392399, “The final walk with preptin” (PLOS ONE, 2024)
No end group written: not given here.

Experiments:
IR-A in IM-9 lymphocytes = experiment: Competitive binding assay for IR-A with [125I]-monoiodotyrosyl-TyrA14-insulin; set-up: species or system human; settings: tracer 125I-insulin, only at the concentrations > 10^-6M, n ≥ 3
Text: (§1) We also tested whether non-labeled preptins can bind to any of receptors for IGF2 (i.e. IR, IGF1R and IGF2R) in competitive binding assays, employing ^125I-labeled human insulin, IGF1 or IGF2. To determine binding to the IGF1R, we used mouse fibroblasts transfected with human IGF1R and with deleted mouse IGF1R (R+39 cells), according to Hexnerova et al.. We used non-transfected 3T3 fibroblasts to determine binding to IGF2R, because these cells contain essentially only IGF2R [5] and we used human IM-9 lymphocytes to determine affinity for IR-A [31].
(§2) Binding affinities of ligands for IGF1R were determined with [^125I]-Iodotyrosyl-IGF1 (2,614 Ci/mmol) prepared in the IOCB radioisotope laboratory by a procedure described in Kertisova et al.. Binding affinities for IR-A were determined with [^125I]-monoiodotyrosyl-TyrA14-insulin (2,200 Ci/mmol), prepared as described by Asai et al.. […]
(§3) The dissociation constant (Kd) values were determined with GraphPad Prism 8, using a nonlinear regression method, a one-site fitting program and considering the potential depletion of free ligand. […] Relative binding affinities were calculated as (Kd of the native hormone/Kd of analog) × 100 (in %). The relative binding affinity S.D. values of analogs were calculated as S.D. = Kd of the native hormone/Kd of peptide ×100 × √[(S.D. native/Kd native)^2 + (S.D. analog/Kd analog)^2].

[1] = test system: human primary osteoblasts; settings: 8 days, ref [17] Bosetti et al.; cited from earlier work
hBMSC-TERT = experiment: Osteoblast differentiation of hBMSC-TERT, alkaline phosphatase (ALP) activity assay; type: cell-based, human; settings: for ALP activity normalized to cell viability, compared to unstimulated cells: 100 ng/ml, 500 ng/ml and 1 ug/ml, day 7 of OB differentiation, changes not significant; for osteoblast differentiation of hBMSCs: summary in the conclusions
Method: hBMSC-TERT were plated at a density of 20 000 cells/cm^2 (Alizarin Red S staining) and 5 000 cells/well (ALP activity assay) in MEM medium (Gibco), supplemented with 10 % FBS (Gibco) and 1 % P/S (Gibco). One day after seeding, the medium was replaced with OB induction medium, composed of basal medium, supplemented with 10 mM B-glycerophosphate (Sigma-Aldrich), 10 nM dexamethasone (Sigma-Aldrich), 50 μg/mL vitamin C (Sigma-Aldrich), 10 nM vitamin D3 (Sigma-Aldrich) and treated with 100 ng/ml, 500 ng/ml and 1 ug/ml IGF2, IGF1, IGF2, preptin or vehicle (acetic acid) as a control. The medium was changed every other day for 7 days (ALP activity assay) or 10 days (Alizarin Red S staining).
ALP activity and cell viability assay were quantified at Day 7 of OB differentiation, in order to normalize the ALP activity data to the number of viable cells.
Cell viability assay was measured using a Cell Titer-Blue Assay Reagent (Promega) at fluorescence intensity (579Ex/584Em). ALP activity was detected by absorbance at 405 nm, using p-nitrophenyl phosphate (Sigma-Aldrich) as substrate.

IGF2R = experiment: Competitive binding assay for IGF2R with [125I]-monoiodotyrosyl-Tyr2-IGF2; set-up: species or system mouse; settings: R- cells with IGF2R; tracer 125I-IGF2; n ≥ 3
Text: as §1, §2, §3

human IGF1R = experiment: Competitive binding assay for IGF1R with [125I]-Iodotyrosyl-IGF1; settings: fibroblasts with IGF1R (R+39 cells); tracer 125I-IGF1; n ≥ 3
Text: as §1, §2, §3

[2] = test system: intracellular calcium in U-2 OS cells; settings: previous paper, different method, ref [21]; cited from earlier work
Text: It is well known that Ca^2+ regulates numerous physiological cellular processes as a second messenger. It plays a vital role in the regulation of cell proliferation, and its increased level is critical for secretagogue-induced insulin release in pancreatic beta cells. […] If preptin or its analogs were proficient insulin secretagogues or had any effect on bone cells, we would e ...

[3] = test system: intracellular calcium in U-2 OS osteoblasts; experiment: Changes in intracellular calcium, U-2 OS osteoblasts; type: cell-based, human; settings: U-2 OS cells; 10^−4 M; Fluo-8 fluorescence, (Fmax−F0)/F0; one-way ANOVA
Method: (§4) The day before the experiment, U-2 OS, MC3T3-E1, MIN6 and cAMP-HEK cells were seeded 6 000 (for osteoblastic cell lines U-2 OS, MC3T3-E1), 10 000 (for cAMP-HEK cells) or 30 000 (MIN6) cells per well in a black 384-well format micro plate with transparent bottom (Cat.#: 142761, Nunc, Thermo Fisher Scientific, USA). On the next day, the cultivation media was exchanged for assay buffer, consisting of HBSS (Cat.#: H6648-500ML, Sigma-Aldrich, Merck, Germany), 20 mM HEPES (Cat.#: L0180-100, Biowest, France), 2.5 mM Probenecid (Cat.#: P8761, Sigma-Aldrich, Merck, Germany), adjusted for pH 7.4 and supplemented with 4.77 μM CalciFluor™ Fluo-8, AM (Cat.#: 1345980-40-6, Santa Cruz Biotechnology, USA). After 45 min incubation with assay buffer in 37°C and 5% CO2, the cells were incubated at RT in a dark place for another 15 minutes. After this time, preptin and its analogs were added by the Agilent Bravo Automated Liquid Handling Platform (Agilent Technologies, USA). The kinetics were measured by the Spark® multimode reader from Tecan (Tecan Group Ltd., Switzerland) for 10 min (approximately 45 cycles, excitation 485 nm, emission 535 nm, band width 10 nm). Before each kinetics, the background fluorescence (F0) was measured and the result was calculated as (Fmax−F0)/F0, where Fmax corresponds to the maximum response upon stimulation by the compounds. Each compound was tested in concentration 10^−4 M.

[4] = test system: phosphorylation of Akt in MC3T3-E1 preosteoblasts; experiment: Stimulation of phosphorylation of Akt, MC3T3-E1 preosteoblasts; type: cell-based, mouse; settings: 10^-8M, 5 min at RT, Western blot, n = 4, one-way ANOVA
Method: For measuring activation of intracellular signaling pathways, 40 000 of MC3T3-E1, U-2 OS and 3T3-R- cells per well and 100 000 of MIN6 cells per well were seeded in a 24-well plate, two days before stimulation. Cells’ stimulations were done after overnight starvation in a clean culture medium without serum. Cells were stimulated using preptins and their analogs at 10^-8M concentration for 5 min at RT. Cells were washed with PBS and froze immediately. Samples for immunoblots were prepared in Sample lysis buffer (62,5 mM Tris/HCl, 2 % SDS (w/v), 10 % glycerol (v/v), 0,01 % Brom-phenol Blue (w/v), 0,1M DTT, 50mM NaF, 1mM Na3VO4, 0,5 % protease inhibitory complex (v/v), pH 6,8).
Western blots were similarly used to study signaling pathways activated by our preptins in all cell lines mentioned above. Proteins were routinely analyzed using immunoblotting. […] The data are expressed as the contribution of target phosphorylation relative to non-stimulated cells (MC3T3-E1, U-2 OS, 3T3-R- and MIN6). Mean ± S.D. (n = 4) values were calculated. The significance of the changes in stimulation of phosphorylation in relation to unstimulated cells was calculated, using the One-way-ANOVA comparing all preptins and their analogs versus control non-stimulated cells.

[5] = test system: cAMP in U-2 OS osteoblasts; experiment: Changes in cAMP levels (GloSensor), U-2 OS osteoblasts; type: cell-based, human; settings: 10^−4 M, GloSensor luminescence, (Lmax−L0)/L0, forskolin positive control
Method: Intracellular cAMP concentration was measured using Promega’s Glosensor on osteoblasts U-2 OS, pancreatic β-cells MIN6 and control cAMP-HEK cells (with stable transfection of F22 plasmid as described above). U-2 OS cells were transfected with F22 plasmid (pGloSensor™-22F, Promega, USA, 6.1 μg of plasmid per 1 million cells) using X-tremeGENE (Sigma-Aldrich, Germany). The ratio of plasmid and transfection reagent was 1:3 (plasmid: X-tremeGENE, m/v). The MIN6 cells were transfected with F22 plasmid in the same concentration as U-2 OS using electroporation by the Invitrogen™ Neon™ Transfection System Instrument (Thermo Fisher Scientific, USA, transfection conditions: 1400 V, 20 ms, 1 pulse). […]
After 24 hours (U-2 OS and cAMP-HEK cells) or 48 hours, respectively (MIN6 cells), cultivation media was changed for assay buffer (HBSS buffer with 20 mM HEPES and 2% (v/v) (cAMP-HEK, U-2 OS cells) or 6% (v/v), respectively (MIN6 cells), GloSensor™ reagent stock solution). The plate was incubated in the dark for 1–2 hours at RT and luminescence was measured until a stable signal was observed (L0). […] The luminescence kinetics were measured by Spark® for 30 min. The result was calculated as (Lmax−L0)/L0, where Lmax corresponds to the maximum response upon stimulation by the compounds. […]

[6] = test system: intracellular calcium in MIN6 pancreatic beta cells; experiment: Changes in intracellular calcium, MIN6 cells; type: cell-based, mouse; settings: 10^−4 M, Fluo-8 fluorescence, (Fmax−F0)/F0, one-way ANOVA
Method: as §4, with “Each compound was tested in concentration 10^−4 M.” left out

DVSTPPTVLPDNFPRYPVGKFFQYDTWKQSTQRL [peptide 1, native human preptin]
binding to IR-A (IR-A in IM-9 lymphocytes): weak binding

IGF2: insulin-like growth factor 2, comparator hormone
change in ALP activity [1]: no significant effects | ALP activity normalized to cell viability, compared to unstimulated cells (hBMSC-TERT): signs of higher ALP activity | osteoblast differentiation of hBMSCs (hBMSC-TERT): neither preptin nor IGF2 significantly increased

preptin: 34-amino acid peptide derived from pro-IGF2; species or peptide number not stated at the place (DVSTPPTVLPDNFPRYPVGKFFQYDTWKQSTQRL; Preptin; UniProt P01344 93-126, looked up)
displacement of native ligand from IGF2R (IGF2R): did not displace native ligands even at the highest concentrations used | displacement of native ligand from IGF1R (human IGF1R): did not displace native ligands even at the highest concentrations used | changes in intracellular calcium levels [2]: able to induce changes in intracellular calcium levels | change in ALP activity [1]: no significant effects | ALP activity normalized to cell viability, compared to unstimulated cells (hBMSC-TERT): signs of higher ALP activity | osteoblast differentiation of hBMSCs (hBMSC-TERT): neither preptin nor IGF2 significantly increased

FPRYPVGKFFQYNTW-NH2 [peptide 18, Mouse preptin fragment, amino acids 13–27, amidated C-end]
changes in intracellular calcium relative to non-stimulated cells [3]: significant increase in intracellular calcium levels

PVGKFFQYDTWKQSTQRL [peptide 3, Human preptin fragment]
binding to IR-A (IR-A in IM-9 lymphocytes): weak binding

WKQSTQRL-NH2 [peptide 12, Human preptin fragment]
phosphorylation of Akt relative to non-stimulated cells [4]: Significantly lower phosphorylation of Akt

DVSTSQAVLPDDFPRYPVGZFFQYDTWRQSAGRL [peptide 15, Mouse preptin with Aib (Z) at position 20]
changes in intracellular calcium relative to non-stimulated cells [3]: significant increase in intracellular calcium levels

TWKQSTQRL-NH2 [peptide 13, Human preptin fragment]
changes in cAMP levels relative to non-stimulated cells [5]: significant decrease of cAMP | phosphorylation of Akt relative to non-stimulated cells [4]: Significantly lower phosphorylation of Akt

DVTTSQAVLPDDFPRY [peptide 17, Mouse preptin fragment]
changes in intracellular calcium relative to non-stimulated cells [6]: completely inhibited calcium secretion
